Four compounds from PubChem BioAssay AID1963840 (Molecular Pharmacology Branch, DTP, NCI, 2024) can be followed below.
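Further: spheroids exposed to compounds for seven days; 100% = DMSO vehicle control viability.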

The first assay concerns 695427-040-R-J1-PDC complex spheroid viability. The experiment in a line: Anticancer human tumor 695427-040-R-J1-PDC patient-derived colon adenocarcinoma cell line growth inhibition [POLQ]. The following applies: second compound 0.0316 µM; first compound 3.16 µM; stronger effect = lower value. The gist of the method: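 PDC + HUVEC + MSC complex spheroids; POLQ inhibitors ± partner drugs; top conc. at/near clinical Cmax, else 10 microM (SN-38 1 microM), half-log dilutions; 37 degrees C, 5% CO2.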
For orientation: viability, T/C means the result in the treated group divided by that in the control group, in per cent. For the compound `CCc1cc2c(N3CCc4c(cc(Cn5ccnc5)cc4-c4cn(C)nc4C(F)(F)F)C3=O)cc(C)nc2c(OC)n1` + Cc1cccc(N(C)C(=O)C2C(O)CCN2c2nc(C)cc(C(F)(F)F)c2C#N)c1, the viability, T/C is 108%.

Take `CCc1cc2c(N3CCc4c(cc(Cn5ccnc5)cc4-c4cn(C)nc4C(F)(F)F)C3=O)ccnc2c(OC)n1` + Cc1cccc(N(C)C(=O)C2C(O)CCN2c2nc(C)cc(C(F)(F)F)c2C#N)c1: the viability, T/C is 105%.

The same assay, now with this note: second compound 0.0316 µM; first compound 10 µM; stronger effect = lower value.
In the case of `C=CC(=O)N1CCN(c2nc(=O)n(-c3c(C)ccnc3C(C)C)c3nc(-c4c(O)cccc4F)c(F)cc23)C(C)C1` (configuration not stated) + Cc1cccc(N(C)C(=O)C2C(O)CCN2c2nc(C)cc(C(F)(F)F)c2C#N)c1, the viability, T/C was 110%.

With `CC(C)n1c(=O)n(C)c2cnc3cc(F)c(-c4ccc(OCCCN5CCCCC5)nc4)cc3c21` + Cc1cccc(N(C)C(=O)C2C(O)CCN2c2nc(C)cc(C(F)(F)F)c2C#N)c1, the viability, T/C was 75.8%.

With `CCc1cc2c(N3CCc4c(cc(Cn5ccnc5)cc4-c4cn(C)nc4C(F)(F)F)C3=O)cc(C)nc2c(OC)n1` + Cc1cccc(N(C)C(=O)C2C(O)CCN2c2nc(C)cc(C(F)(F)F)c2C#N)c1, the viability, T/C was 98.3%.

As to `CCc1cc2c(N3CCc4c(cc(Cn5ccnc5)cc4-c4cn(C)nc4C(F)(F)F)C3=O)ccnc2c(OC)n1` + Cc1cccc(N(C)C(=O)C2C(O)CCN2c2nc(C)cc(C(F)(F)F)c2C#N)c1, the viability, T/C is 92.4%.

Still in this assay, the particulars now being: second compound 0.1 µM; first compound 0.0316 µM; stronger effect = lower value.
As to `C=CC(=O)N1CCN(c2nc(=O)n(-c3c(C)ccnc3C(C)C)c3nc(-c4c(O)cccc4F)c(F)cc23)C(C)C1` (configuration not stated) + Cc1cccc(N(C)C(=O)C2C(O)CCN2c2nc(C)cc(C(F)(F)F)c2C#N)c1, the viability, T/C was 96.2%.

With `CC(C)n1c(=O)n(C)c2cnc3cc(F)c(-c4ccc(OCCCN5CCCCC5)nc4)cc3c21` + Cc1cccc(N(C)C(=O)C2C(O)CCN2c2nc(C)cc(C(F)(F)F)c2C#N)c1, the viability, T/C was 99.3%.

Regarding `CCc1cc2c(N3CCc4c(cc(Cn5ccnc5)cc4-c4cn(C)nc4C(F)(F)F)C3=O)cc(C)nc2c(OC)n1` + Cc1cccc(N(C)C(=O)C2C(O)CCN2c2nc(C)cc(C(F)(F)F)c2C#N)c1, the viability, T/C was 110%.

As to `CCc1cc2c(N3CCc4c(cc(Cn5ccnc5)cc4-c4cn(C)nc4C(F)(F)F)C3=O)ccnc2c(OC)n1` + Cc1cccc(N(C)C(=O)C2C(O)CCN2c2nc(C)cc(C(F)(F)F)c2C#N)c1, the viability, T/C is 110%.

Staying with this assay, now noted: second compound 0.1 µM; first compound 0.1 µM; stronger effect = lower value.
As for `C=CC(=O)N1CCN(c2nc(=O)n(-c3c(C)ccnc3C(C)C)c3nc(-c4c(O)cccc4F)c(F)cc23)C(C)C1` (configuration not stated) + Cc1cccc(N(C)C(=O)C2C(O)CCN2c2nc(C)cc(C(F)(F)F)c2C#N)c1, the viability, T/C was 92.4%.

With `CC(C)n1c(=O)n(C)c2cnc3cc(F)c(-c4ccc(OCCCN5CCCCC5)nc4)cc3c21` + Cc1cccc(N(C)C(=O)C2C(O)CCN2c2nc(C)cc(C(F)(F)F)c2C#N)c1, the viability, T/C was 102%.

`CCc1cc2c(N3CCc4c(cc(Cn5ccnc5)cc4-c4cn(C)nc4C(F)(F)F)C3=O)cc(C)nc2c(OC)n1` + Cc1cccc(N(C)C(=O)C2C(O)CCN2c2nc(C)cc(C(F)(F)F)c2C#N)c1: the viability, T/C was 100%.

Turning to `CCc1cc2c(N3CCc4c(cc(Cn5ccnc5)cc4-c4cn(C)nc4C(F)(F)F)C3=O)ccnc2c(OC)n1` + Cc1cccc(N(C)C(=O)C2C(O)CCN2c2nc(C)cc(C(F)(F)F)c2C#N)c1, the viability, T/C was 107%.

Still in this assay, the particulars now being: second compound 0.1 µM; first compound 0.316 µM; stronger effect = lower value.
Consider `C=CC(=O)N1CCN(c2nc(=O)n(-c3c(C)ccnc3C(C)C)c3nc(-c4c(O)cccc4F)c(F)cc23)C(C)C1` (configuration not stated) + Cc1cccc(N(C)C(=O)C2C(O)CCN2c2nc(C)cc(C(F)(F)F)c2C#N)c1, for which the viability, T/C was 101%.

In the case of `CC(C)n1c(=O)n(C)c2cnc3cc(F)c(-c4ccc(OCCCN5CCCCC5)nc4)cc3c21` + Cc1cccc(N(C)C(=O)C2C(O)CCN2c2nc(C)cc(C(F)(F)F)c2C#N)c1, the viability, T/C is 110%.

For `CCc1cc2c(N3CCc4c(cc(Cn5ccnc5)cc4-c4cn(C)nc4C(F)(F)F)C3=O)cc(C)nc2c(OC)n1` + Cc1cccc(N(C)C(=O)C2C(O)CCN2c2nc(C)cc(C(F)(F)F)c2C#N)c1, the viability, T/C was 102%.

Consider `CCc1cc2c(N3CCc4c(cc(Cn5ccnc5)cc4-c4cn(C)nc4C(F)(F)F)C3=O)ccnc2c(OC)n1` + Cc1cccc(N(C)C(=O)C2C(O)CCN2c2nc(C)cc(C(F)(F)F)c2C#N)c1, for which the viability, T/C was 109%.

The assay is the same for the next values; noted with them: second compound 0.1 µM; first compound 1 µM; stronger effect = lower value.
With `C=CC(=O)N1CCN(c2nc(=O)n(-c3c(C)ccnc3C(C)C)c3nc(-c4c(O)cccc4F)c(F)cc23)C(C)C1` (configuration not stated) + Cc1cccc(N(C)C(=O)C2C(O)CCN2c2nc(C)cc(C(F)(F)F)c2C#N)c1, the viability, T/C is 108%.

As for `CC(C)n1c(=O)n(C)c2cnc3cc(F)c(-c4ccc(OCCCN5CCCCC5)nc4)cc3c21` + Cc1cccc(N(C)C(=O)C2C(O)CCN2c2nc(C)cc(C(F)(F)F)c2C#N)c1, the viability, T/C is 108%.

Turning to `CCc1cc2c(N3CCc4c(cc(Cn5ccnc5)cc4-c4cn(C)nc4C(F)(F)F)C3=O)cc(C)nc2c(OC)n1` + Cc1cccc(N(C)C(=O)C2C(O)CCN2c2nc(C)cc(C(F)(F)F)c2C#N)c1, the viability, T/C is 107%.

Take `CCc1cc2c(N3CCc4c(cc(Cn5ccnc5)cc4-c4cn(C)nc4C(F)(F)F)C3=O)ccnc2c(OC)n1` + Cc1cccc(N(C)C(=O)C2C(O)CCN2c2nc(C)cc(C(F)(F)F)c2C#N)c1: the viability, T/C is 103%.

The assay is the same for the next values; noted with them: second compound 0.1 µM; first compound 3.16 µM; stronger effect = lower value.
Consider `C=CC(=O)N1CCN(c2nc(=O)n(-c3c(C)ccnc3C(C)C)c3nc(-c4c(O)cccc4F)c(F)cc23)C(C)C1` (configuration not stated) + Cc1cccc(N(C)C(=O)C2C(O)CCN2c2nc(C)cc(C(F)(F)F)c2C#N)c1, for which the viability, T/C is 99.9%.

In the case of `CC(C)n1c(=O)n(C)c2cnc3cc(F)c(-c4ccc(OCCCN5CCCCC5)nc4)cc3c21` + Cc1cccc(N(C)C(=O)C2C(O)CCN2c2nc(C)cc(C(F)(F)F)c2C#N)c1, the viability, T/C was 96.8%.

For `CCc1cc2c(N3CCc4c(cc(Cn5ccnc5)cc4-c4cn(C)nc4C(F)(F)F)C3=O)cc(C)nc2c(OC)n1` + Cc1cccc(N(C)C(=O)C2C(O)CCN2c2nc(C)cc(C(F)(F)F)c2C#N)c1, the viability, T/C was 103%.

Consider `CCc1cc2c(N3CCc4c(cc(Cn5ccnc5)cc4-c4cn(C)nc4C(F)(F)F)C3=O)ccnc2c(OC)n1` + Cc1cccc(N(C)C(=O)C2C(O)CCN2c2nc(C)cc(C(F)(F)F)c2C#N)c1, for which the viability, T/C is 114%.

The assay is the same for the next values; noted with them: second compound 0.1 µM; first compound 10 µM; stronger effect = lower value.
As for `C=CC(=O)N1CCN(c2nc(=O)n(-c3c(C)ccnc3C(C)C)c3nc(-c4c(O)cccc4F)c(F)cc23)C(C)C1` (configuration not stated) + Cc1cccc(N(C)C(=O)C2C(O)CCN2c2nc(C)cc(C(F)(F)F)c2C#N)c1, the viability, T/C was 104%.

`CC(C)n1c(=O)n(C)c2cnc3cc(F)c(-c4ccc(OCCCN5CCCCC5)nc4)cc3c21` + Cc1cccc(N(C)C(=O)C2C(O)CCN2c2nc(C)cc(C(F)(F)F)c2C#N)c1: the viability, T/C is 70.3%.

Consider `CCc1cc2c(N3CCc4c(cc(Cn5ccnc5)cc4-c4cn(C)nc4C(F)(F)F)C3=O)cc(C)nc2c(OC)n1` + Cc1cccc(N(C)C(=O)C2C(O)CCN2c2nc(C)cc(C(F)(F)F)c2C#N)c1, for which the viability, T/C is 103%.

Consider `CCc1cc2c(N3CCc4c(cc(Cn5ccnc5)cc4-c4cn(C)nc4C(F)(F)F)C3=O)ccnc2c(OC)n1` + Cc1cccc(N(C)C(=O)C2C(O)CCN2c2nc(C)cc(C(F)(F)F)c2C#N)c1, for which the viability, T/C is 89.3%.

Still in this assay, the particulars now being: second compound 0.316 µM; first compound 0.0316 µM; stronger effect = lower value.
Regarding `C=CC(=O)N1CCN(c2nc(=O)n(-c3c(C)ccnc3C(C)C)c3nc(-c4c(O)cccc4F)c(F)cc23)C(C)C1` (configuration not stated) + Cc1cccc(N(C)C(=O)C2C(O)CCN2c2nc(C)cc(C(F)(F)F)c2C#N)c1, the viability, T/C was 103%.

For the compound `CC(C)n1c(=O)n(C)c2cnc3cc(F)c(-c4ccc(OCCCN5CCCCC5)nc4)cc3c21` + Cc1cccc(N(C)C(=O)C2C(O)CCN2c2nc(C)cc(C(F)(F)F)c2C#N)c1, the viability, T/C was 104%.

Regarding `CCc1cc2c(N3CCc4c(cc(Cn5ccnc5)cc4-c4cn(C)nc4C(F)(F)F)C3=O)cc(C)nc2c(OC)n1` + Cc1cccc(N(C)C(=O)C2C(O)CCN2c2nc(C)cc(C(F)(F)F)c2C#N)c1, the viability, T/C was 108%.

Turning to `CCc1cc2c(N3CCc4c(cc(Cn5ccnc5)cc4-c4cn(C)nc4C(F)(F)F)C3=O)ccnc2c(OC)n1` + Cc1cccc(N(C)C(=O)C2C(O)CCN2c2nc(C)cc(C(F)(F)F)c2C#N)c1, the viability, T/C is 105%.

The same assay, now with this note: second compound 0.316 µM; first compound 0.1 µM; stronger effect = lower value.
With `C=CC(=O)N1CCN(c2nc(=O)n(-c3c(C)ccnc3C(C)C)c3nc(-c4c(O)cccc4F)c(F)cc23)C(C)C1` (configuration not stated) + Cc1cccc(N(C)C(=O)C2C(O)CCN2c2nc(C)cc(C(F)(F)F)c2C#N)c1, the viability, T/C is 103%.

In the case of `CC(C)n1c(=O)n(C)c2cnc3cc(F)c(-c4ccc(OCCCN5CCCCC5)nc4)cc3c21` + Cc1cccc(N(C)C(=O)C2C(O)CCN2c2nc(C)cc(C(F)(F)F)c2C#N)c1, the viability, T/C was 101%.

With `CCc1cc2c(N3CCc4c(cc(Cn5ccnc5)cc4-c4cn(C)nc4C(F)(F)F)C3=O)cc(C)nc2c(OC)n1` + Cc1cccc(N(C)C(=O)C2C(O)CCN2c2nc(C)cc(C(F)(F)F)c2C#N)c1, the viability, T/C was 105%.

Take `CCc1cc2c(N3CCc4c(cc(Cn5ccnc5)cc4-c4cn(C)nc4C(F)(F)F)C3=O)ccnc2c(OC)n1` + Cc1cccc(N(C)C(=O)C2C(O)CCN2c2nc(C)cc(C(F)(F)F)c2C#N)c1: the viability, T/C was 109%.

The assay is the same for the next values; noted with them: second compound 0.316 µM; first compound 0.316 µM; stronger effect = lower value.
Turning to `C=CC(=O)N1CCN(c2nc(=O)n(-c3c(C)ccnc3C(C)C)c3nc(-c4c(O)cccc4F)c(F)cc23)C(C)C1` (configuration not stated) + Cc1cccc(N(C)C(=O)C2C(O)CCN2c2nc(C)cc(C(F)(F)F)c2C#N)c1, the viability, T/C was 101%.

`CC(C)n1c(=O)n(C)c2cnc3cc(F)c(-c4ccc(OCCCN5CCCCC5)nc4)cc3c21` + Cc1cccc(N(C)C(=O)C2C(O)CCN2c2nc(C)cc(C(F)(F)F)c2C#N)c1: the viability, T/C was 106%.

Take `CCc1cc2c(N3CCc4c(cc(Cn5ccnc5)cc4-c4cn(C)nc4C(F)(F)F)C3=O)cc(C)nc2c(OC)n1` + Cc1cccc(N(C)C(=O)C2C(O)CCN2c2nc(C)cc(C(F)(F)F)c2C#N)c1: the viability, T/C is 93.2%.

As for `CCc1cc2c(N3CCc4c(cc(Cn5ccnc5)cc4-c4cn(C)nc4C(F)(F)F)C3=O)ccnc2c(OC)n1` + Cc1cccc(N(C)C(=O)C2C(O)CCN2c2nc(C)cc(C(F)(F)F)c2C#N)c1, the viability, T/C is 92.8%.
